# Results from patent publication US11136291B2, “Antifungal compounds and uses thereof” (Dana-Farber Cancer Institute, Inc., priority 2016, dated 2021).
# Columns and labels:
# [1] = system: C. glabrata CgPDR1 wild-type and gain-of-function mutant strains; assay: Spot plating on gradient plates with azole; format: cell-based, Candida glabrata
# [2] = system: Candida parapsilosis DSY473; assay: Broth dilution MIC; conditions: ATCC22019
# Protocol: (§1) Antifungal susceptibility testing was carried out using broth dilution assays which examined effects of two-fold dilutions of compounds on cellular growth. The minimum inhibitory concentration (MIC) was defined as the drug concentration at which the optical density was equal to or decreased more than 50% from that of the drug-free culture.
# Candida albicans SC5314 = assay: Broth dilution MIC
# Protocol: as §1
# [3] = system: ScPdr1 target genes (ScPDR5, ScSNQ2); assay: Transcription assay, quantitative real-time PCR of ScPdr1 target genes; format: cell-based, Saccharomyces cerevisiae; conditions: ketoconazole induced
# Protocol: ChIP was performed according to standard procedures (see. e.g., McConnell A D, Gelbart M E, Tsukiyama T. Histone fold protein Dls1p is required for Isw2-dependent chromatin remodeling in vivo. Mol Cell Biol. 2004; 24(7):2605-13. PMCID: 371119). Briefly, cells were grown to saturation then washed 2 times with sterilized Milli-Q (Millipore) water, resuspended to an OD600 of 0.8 in YP (1% yeast extract, 2% bacto peptone) and then grown for 6 hours at 30° C. with shaking in the presence of DMSO (vehicle) or iKIX1. Cultures were induced with ketoconazole to a final concentration of 40 μM and harvested at the times indicated. 2 mL of culture was harvested at 0′ and 15′ for matched transcription samples; RNA was prepared as described below. Cells were fixed with 1% formaldehyde (final) for 15 minutes with swirling and then quenched with 125 mM glycine (final) for 5 min. with swirling. Cells were pelleted, washed with TBS+125 mM glycine and then TBS. Cells were lysed in buffer containing 50 mM HEPES, pH 7.5, 140 mM NaCl, 1% Triton X-100, 0.1% sodium deoxycholate, 1 mM EDTA and protease inhibitors and 0.5 mm glass beads. […]
# For harvest and preparation of RNA. cells equivalent to an OD600 of 0.4 were centrifuged at 4,000 rpm for 4 minutes and then resuspended in 700 μL Trizol. […] Quantitative real-time PCR reactions were run and analyzed on a Roche LightCycler 480 system. […]
# [4] = system: azole-activated and Pdr1-dependent genes; assay: RNA-Seq; conditions: 10 μM iKIX1 with 40 μM ketoconazole
# Protocol: Cells were grown in YPD at 30° C. with shaking overnight (24 hours) then washed twice in 2× volume of Milli-Q water before being resuspended in YP to an OD600 of 0.8. Cells were grown with shaking overnight (˜16 hours) before splitting and treatment with vehicle (DMSO) or 10 μM iKIX1. Cells were grown with shaking another 8 hours before harvest of non-azole induced samples. Remaining cultures were induced to a final concentration of 40 μM ketoconazole and harvested after 15 minutes by centrifugation at 4,000 rpm for 4 minutes at 4° C. Media was aspirated and cells were snap frozen on dry ice. RNA isolation was performed as previously described (see, e.g., Martin R, Moran G P, Jacobsen I D, Heyken A, Domey J, Sullivan D J, et al. The Candida albicans-specific gene EED1 encodes a key regulator of hyphal extension. PLoS One.6(4):e18394. PMCID: 3075580); RNA was then DNase treated using recombinant DNasel. […] Sequencing was carried out on Illumina HiSeq 2500, resulting in approximately 17.68 million of 50 bp paired-end reads per sample. STAR aligner was used to map sequencing reads to transcripts in the reference genomes (S288C for Saccharomyces cerevisiae and draft genome from isolate DSY562 for Candida glabrata) (see, e.g., Dobin A, Davis C A, Schlesinger F, Drenkow J, Zaleski C, Jha S, et al. STAR: ultrafast universal RNA-seq aligner. Bioinformatics.29(1):15-21. PMCID: 3530905). […]
# [5] = system: Candida tropicalis DSY472; assay: Broth dilution MIC; conditions: ATCC75
# Protocol: as §1
# [6] = system: Saccharomyces cerevisiae DSY2094; assay: Broth dilution MIC
# Protocol: as §1
# [7] = system: C. glabrata PDR1 wild-type or PDR1^L280F strains; assay: Galleria mellonella survival assay; format: in vivo
# SREBP-target genes = assay: Transcription of SREBP-target genes in HepG2 cells; format: cell-based, Human; conditions: concentrations up to 100 μM, 24 hours
# Protocol: For transcription assays, HepG2 cells were seeded in MEM+10% FBS on 12-well poly-D-lysine-coated plates at a concentration of 175,000 cells per mL. After cells attached (4 hours), media was aspirated and iKIX1 was added in fresh MEM+10% FBS to final concentrations indicated. Cells were treated with iKIX1 for 24 hours before RNA was isolated using Trizol according to manufacturer's instructions. Quantitative real-time RT-PCR was carried out as described above.
# [8] = system: CgCDR1 transcription (CgPdr1 target); assay: Transcription assay, quantitative real-time PCR of CgPdr1 target genes; format: cell-based, Candida glabrata
# HepG2 cells = assay: HepG2 cell viability (CellTiter-Glo); format: cell-based, Human; conditions: 72 hours
# Protocol: HepG2 (ATCC HB-8065) cell viability was assessed using the CellTiter-Glo assay kit (Promega). HepG2 cells (N=4,500) were seeded in each well in 100 μL MEM+10% FBS in 96-well CellBIND (Corning) plates. After 24 hours, iKIX1 was added to final concentrations indicated for a final volume of 150 μL. HepG2 cells were incubated with iKIX1 for another 72 hours before CellTiter-Glo signal was assessed with an Envision 2103 Multilabel plate reader according to the manufacturer's instructions.
# [9] = system: rhodamine 6G efflux in C. glabrata; assay: Rhodamine 6G efflux assay; format: cell-based, Candida glabrata; conditions: PDR1 wild-type or gain-of-function strains, iKIX1 pre-treatment vs vehicle
# Protocol: Cells were treated with vehicle or iKIX1 and grown with shaking for 16 hours. […] Untreated cells were placed on ice and not treated with ketoconazole or rhodamine 6G. All cells were placed on ice and washed twice with cold YP containing either 5 μM ketoconazole+vehicle (DMSO) or 5 μM ketoconazole+30 μM iKIX1 to remove excess rhodamine 6G. Cells were resuspended in room temperature YP with either 5 μM ketoconazole+vehicle (DMSO) or 5 μM ketoconazole+30 μM iKIX1 and 100 μL was transferred to a 96-well plate. An Envision 2103 Multilabel plate reader was used to assess RFU (relative fluorescence units; excitation 485, emission 535) over 60 minutes at 7.5 minute intervals. Efflux rate was calculated as RFU per second with 7.5 minute windows. Experiments were performed in triplicate, with duplicate readings for each sample; error bars indicate s.d.
# Candida glabrata DSY565 = assay: Broth dilution MIC; conditions: Nakaseomyces glabratus
# Protocol: as §1
smiles,measurement,setting,value
"N#CCC(=O)NNC(=S)Nc1ccc(Cl)c(Cl)c1 [iKIX1, 2-(2-Cyanoacetyl)-N-(3,4-dichlorophenyl)hydrazinecarbothioamide]",azole sensitivity of growth on gradient plates,"[1]; CgPDR1 gain-of-function mutant strains, compound gradient with fluconazole or ketoconazole",restored azole-sensitivity to PDR1 gain-of-function mutant strains in a concentration-dependent manner
same,growth inhibition on gradient plates,"[1]; CgPDR1 wild-type strains, iKIX1 with azole vs single agents",increased growth inhibition
same,MIC,[2],25 µM
same,MIC,Candida albicans SC5314,12.5 µM
same,azole-induced transcription of ScPdr1 target genes,[3],strongly inhibited azole-induced transcription of ScPdr1 target genes
same,expression of azole-activated and Pdr1-dependent genes,[4],strongly blunted expression of many azole-activated and Pdr1-dependent genes
same,MIC,[5],6.25 µM
same,MIC,[6],12.5 µM
same,survival of G. mellonella larvae,"[7]; […], fluconazole-iKIX1 combination",no significant alterations in survival
same,survival of G. mellonella larvae,"[7]; […], single agent (fluconazole 50 mg/kg or iKIX1 25 mg/kg) vs vehicle",did not significantly increase survival
same,survival of G. mellonella larvae,[7]; in vivo,significantly increased survival
same,effect on transcription of SREBP-target genes,SREBP-target genes,no effect
same,ketoconazole-induced CgPdr1 target gene (CgCDR1) transcription (in words),"[8]; CgPDR1 wild-type strain (SFY114), pre-treatment then 40 μM ketoconazole",reduced target gene induction in a durable and concentration-dependent manner
same,Pdr1-target gene induction,"[8]; iKIX1 alone, no azole",did not significantly affect Pdr1-target gene induction
same,azole-induced transcription of CgPdr1 target genes,[8]; isogenic strains with gain-of-function CgPDR1 mutations,"reduced azole-induced transcription of CgPdr1 target genes (e.g., CgCDR1) in a concentration-dependent manner in all strains tested"
same,concentrations that inhibit viability of HepG2 cells,HepG2 cells,> 50 µM
same,IC50,"HepG2 cells; Homo sapiens, HepG2, read-out: IC50, toxicity in HepG2 cells",~100 µM
same,maximum rhodamine 6G efflux rates,[9],Maximum efflux rates were significantly decreased
same,MIC,Candida glabrata DSY565,12.5 µM
